Among the data in the NIST ThermoML archive (doi:10.1021/je900716q) are mass density and binary diffusion coefficient values, retold here.

Each structure is given as a SMILES string. Numbers after ± are expanded uncertainties.

The conditions of data set [1]: 101.33 kPa, Liquid, Pycnometric method.
A short description of data set [2]: xn = mol fraction of the nth substance listed. The following applies: Liquid, measurement of pressure, x2 = 0.

Turning to `C[n+]1ccn(CCO)c1.F[B-](F)(F)F` [1-(2-hydroxyethyl)-3-methylimidazolium tetrafluoroborate], the mass density in data set [1] (300.71 K) is recorded as 1384 ± 1 kg/m3; in data set [1] (303.35 K) it was 1380 ± 1 kg/m3; in data set [1] (304.95 K), 1379 ± 1 kg/m3; in data set [1] (307.31 K), 1376 ± 1 kg/m3; in data set [1] (310.81 K), 1373 ± 1 kg/m3; in data set [1] (314.35 K) it was 1369 ± 1 kg/m3.

For the molecule `C[n+]1ccn(CCO)c1.F[B-](F)(F)F` [1-(2-hydroxyethyl)-3-methylimidazolium tetrafluoroborate] + O=C=O, the binary diffusion coefficient is 1.4e-08 m2/s in data set [2] (303.15 K); 2.09e-08 m2/s in data set [2] (313.15 K); 3.94e-08 m2/s in data set [2] (323.15 K); 4.65e-08 m2/s in data set [2] (333.15 K); 5.71e-08 m2/s in data set [2] (343.15 K); 7.16e-08 m2/s in data set [2] (353.15 K).

Regarding `C[n+]1ccn(CCO)c1.F[B-](F)(F)F` [1-(2-hydroxyethyl)-3-methylimidazolium tetrafluoroborate] + S, the binary diffusion coefficient in data set [2] (303.15 K) was 1.79e-08 m2/s; in data set [2] (313.15 K) it was 2.15e-08 m2/s; in data set [2] (323.15 K), 2.76e-08 m2/s; in data set [2] (333.15 K), 3.24e-08 m2/s; in data set [2] (343.15 K), 3.8e-08 m2/s; in data set [2] (353.15 K) it was 4.41e-08 m2/s.
